The Kinase Knowledgebase extract (Sharma et al. 2016)

The compounds below were run against ROCK2 (human) (UniProt O75116) (assay: Inhibition of ROCK2 Kinase Activity).
ROCK2 (human), sequence (O75116 whole entry, looked up): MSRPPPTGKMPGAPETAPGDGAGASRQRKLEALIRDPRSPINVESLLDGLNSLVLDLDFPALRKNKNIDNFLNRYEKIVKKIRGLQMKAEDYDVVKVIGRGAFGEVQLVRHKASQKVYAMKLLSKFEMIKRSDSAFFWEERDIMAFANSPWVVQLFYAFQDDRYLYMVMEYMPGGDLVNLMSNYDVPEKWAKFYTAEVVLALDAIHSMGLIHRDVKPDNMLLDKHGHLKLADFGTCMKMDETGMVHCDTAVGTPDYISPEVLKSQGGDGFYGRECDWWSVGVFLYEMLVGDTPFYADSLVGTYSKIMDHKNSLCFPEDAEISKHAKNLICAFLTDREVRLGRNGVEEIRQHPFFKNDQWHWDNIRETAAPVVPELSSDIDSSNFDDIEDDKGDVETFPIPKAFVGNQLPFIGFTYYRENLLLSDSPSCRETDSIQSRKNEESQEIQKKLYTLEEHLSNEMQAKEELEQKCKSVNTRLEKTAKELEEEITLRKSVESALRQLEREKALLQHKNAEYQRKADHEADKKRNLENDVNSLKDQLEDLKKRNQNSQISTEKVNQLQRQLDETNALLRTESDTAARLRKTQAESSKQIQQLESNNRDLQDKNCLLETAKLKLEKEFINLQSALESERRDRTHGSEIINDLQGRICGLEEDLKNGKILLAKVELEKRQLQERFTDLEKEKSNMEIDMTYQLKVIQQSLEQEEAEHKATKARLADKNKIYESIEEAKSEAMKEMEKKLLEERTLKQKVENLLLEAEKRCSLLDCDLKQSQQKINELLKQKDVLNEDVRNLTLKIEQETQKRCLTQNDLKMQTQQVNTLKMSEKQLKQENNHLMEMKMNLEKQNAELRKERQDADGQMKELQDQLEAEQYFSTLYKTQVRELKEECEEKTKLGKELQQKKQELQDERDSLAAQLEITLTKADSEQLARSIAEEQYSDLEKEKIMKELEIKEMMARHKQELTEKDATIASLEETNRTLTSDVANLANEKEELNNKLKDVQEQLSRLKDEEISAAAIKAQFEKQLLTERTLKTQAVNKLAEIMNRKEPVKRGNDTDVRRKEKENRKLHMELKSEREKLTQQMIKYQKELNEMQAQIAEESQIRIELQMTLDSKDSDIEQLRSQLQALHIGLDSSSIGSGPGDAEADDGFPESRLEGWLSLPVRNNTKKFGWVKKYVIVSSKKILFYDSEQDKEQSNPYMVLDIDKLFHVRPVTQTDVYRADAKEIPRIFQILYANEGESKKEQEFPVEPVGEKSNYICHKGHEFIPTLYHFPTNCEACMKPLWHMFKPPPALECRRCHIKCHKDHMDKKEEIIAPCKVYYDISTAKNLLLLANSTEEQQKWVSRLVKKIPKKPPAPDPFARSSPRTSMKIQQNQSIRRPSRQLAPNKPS

Row | SMILES | IC50
1 | NC(c1ccc(C(=O)Nc2ccncc2)cc1)C1CCCN1C(=O)Cc1ccc(O)c([N+](=O)[O-])c1 (centres undefined) | 500 to 5000 nM
2 | COc1cc(OC)cc(C(=O)NCC(N)c2ccc(C(=O)Nc3ccncc3)cc2)c1 (centres undefined) | 500 to 5000 nM
3 | CN(CC(N)c1ccc(C(=O)Nc2ccncc2)cc1)C(=O)C1CCOc2ccc(F)cc21 (centres undefined) | 500 to 5000 nM
4 | Cc1nc(-c2ccccc2)sc1C(=O)NCC(N)c1ccc(C(=O)Nc2ccncc2)cc1 (centres undefined) | 500 to 5000 nM
5 | NC(c1ccc(C(=O)Nc2ccncc2)cc1)C1CCCN1C(=O)C1(c2ccc(F)c(Cl)c2)CC1 (centres undefined) | 500 to 5000 nM
6 | NC(CNC(=O)C1CCOC1)c1ccc(C(=O)Nc2ccncc2)cc1 (centres undefined) | 500 to 5000 nM
7 | CN(CC(N)c1ccc(C(=O)Nc2ccncc2)cc1)C(=O)Cc1cncc(Br)c1 (centres undefined) | 500 to 5000 nM
8 | CN(CC(N)c1ccc(C(=O)Nc2ccncc2)cc1)C(=O)C1(c2ccc(F)c(Cl)c2)CC1 (centres undefined) | 500 to 5000 nM
9 | CCNS(=O)(=O)c1cccc(C(=O)NCC(N)c2ccc(C(=O)Nc3ccncc3)cc2)c1 (centres undefined) | 500 to 5000 nM
10 | CN(CC(N)c1ccc(C(=O)Nc2ccncc2)cc1)C(=O)Cc1cccc(Cl)c1F (centres undefined) | 500 to 5000 nM
11 | CCCOc1ccc(C(=O)NCC(N)c2ccc(C(=O)Nc3ccncc3)cc2)cc1 (centres undefined) | 500 to 5000 nM
12 | CC(=O)Nc1ccc(C(=O)NCC(N)c2ccc(C(=O)Nc3ccncc3)cc2)cc1 (centres undefined) | 500 to 5000 nM
13 | NC(c1ccc(C(=O)Nc2ccncc2)cc1)C1CCCN1C(=O)C(c1ccccc1)C1CCCC1 (centres undefined) | 500 to 5000 nM
14 | COc1ccc(C2(C(=O)N3CCCC3C(N)c3ccc(C(=O)Nc4ccncc4)cc3)CC2)cc1 (centres undefined) | 500 to 5000 nM
15 | NC(c1ccc(C(=O)Nc2ccncc2)cc1)C1CCCN1C(=O)Cc1csc2ccccc12 (centres undefined) | 50 to 500 nM
16 | NC(CC(=O)N(CCc1ccccc1)Cc1ccccc1)c1ccc(C(=O)Nc2ccncc2)cc1 (centres undefined) | 50 to 500 nM
17 | CN(CC(N)c1ccc(C(=O)Nc2ccncc2)cc1)C(=O)C1CCOc2ccc(Cl)cc21 (centres undefined) | 500 to 5000 nM
18 | CN(CC(N)c1ccc(C(=O)Nc2ccncc2)cc1)C(=O)C1(c2ccc(F)cc2)CC1 (centres undefined) | 500 to 5000 nM
19 | N[C@H](CNC(=O)C1(c2ccc(F)cc2)CCCC1)c1ccc(C(=O)Nc2ccncc2)cc1 | 50 to 500 nM
20 | CCSCC(=O)NCC(N)c1ccc(C(=O)Nc2ccncc2)cc1 (centres undefined) | 50 to 500 nM
21 | Cc1ccsc1C=NOCC(=O)NCC(N)c1ccc(C(=O)Nc2ccncc2)cc1 (centres undefined) | 500 to 5000 nM
22 | NC(CNC(=O)C(c1ccccc1)C1CCCC1)c1ccc(C(=O)Nc2ccncc2)cc1 (centres undefined) | 500 to 5000 nM

The remaining lines, values ahead:

Row | IC50 | SMILES
23 | 50 to 500 nM | CS(=O)(=O)c1ccc(CNC(=O)CC(N)c2ccc(C(=O)Nc3ccncc3)cc2)cc1 (centres undefined)
24 | 50 to 500 nM | N[C@@H](CC(=O)N[C@@H]1CCCc2ccccc21)c1ccc(C(=O)Nc2ccncc2)cc1
25 | 50 to 500 nM | COc1ccc(CC(=O)N(C)CC(N)c2ccc(C(=O)Nc3ccncc3)cc2)cc1 (centres undefined)
26 | 50 to 500 nM | CC(C)(C(=O)NCC(N)c1ccc(C(=O)Nc2ccncc2)cc1)c1ccc(F)cc1F (centres undefined)
27 | 50 to 500 nM | NC(c1ccc(C(=O)Nc2ccncc2)cc1)C1CCCN1C(=O)Cc1ccc(Br)cc1 (centres undefined)
28 | 50 to 500 nM | NC(CC(=O)NCc1ccccc1F)c1ccc(C(=O)Nc2ccncc2)cc1 (centres undefined)
29 | 50 to 500 nM | NC(CC(=O)NCc1cccc(Cl)c1)c1ccc(C(=O)Nc2ccncc2)cc1 (centres undefined)
30 | 50 to 500 nM | NC(c1ccc(C(=O)Nc2ccncc2)cc1)C1CCCN1C(=O)Cc1cccs1 (centres undefined)
31 | 50 to 500 nM | NC(CNC(=O)C1CCCCc2ccc(F)cc21)c1ccc(C(=O)Nc2ccncc2)cc1 (centres undefined)
32 | < 50 nM | N[C@H](CC(=O)NC1COc2ccccc21)c1ccc(C(=O)Nc2ccncc2)cc1 (some centres undefined)
33 | 50 to 500 nM | CN(CC(N)c1ccc(C(=O)Nc2ccncc2)cc1)C(=O)C1Cc2ccccc21 (centres undefined)
34 | 50 to 500 nM | N[C@@H](CC(=O)N[C@H]1CCCc2ccccc21)c1ccc(C(=O)Nc2ccncc2)cc1
35 | 50 to 500 nM | NC(CC(=O)NC(c1ccccc1)c1ccc(Cl)cc1)c1ccc(C(=O)Nc2ccncc2)cc1 (centres undefined)
36 | 50 to 500 nM | NC(CNC(=O)c1ccccc1)c1ccc(C(=O)Nc2ccncc2)cc1 (centres undefined)
37 | 50 to 500 nM | NC(CC(=O)Nc1ccc2[nH]ccc2c1)c1ccc(C(=O)Nc2ccncc2)cc1 (centres undefined)
38 | 50 to 500 nM | CC(C)(NC(=O)CC(N)c1ccc(C(=O)Nc2ccncc2)cc1)c1ccc(Cl)cc1 (centres undefined)
39 | 50 to 500 nM | COc1ccc(Cl)cc1NC(=O)NCC(N)c1ccc(C(=O)Nc2ccncc2)cc1 (centres undefined)
